# Reference: a melting point compilation (Tetko et al.; mined from patent text by program, amines drawn as free bases though some values may be those of a salt)
row,Compound,melting point
1,CN(C)Cc1cc(OCCCO)cs1,32 to 34 °C
2,CCCCCCCCCCCCCCCCCCNC(=O)OCC(CN)NC(=O)OC (stereo not drawn),128 to 129 °C
3,CCCCCCn1c2cc(CO)ccc2c2ccc(CO)cc21,98 to 99 °C
4,CC(=O)Nc1cc(O)cc(C(C)CCCc2ccccc2)c1 (stereo not drawn),128 to 130 °C
5,O=C(O)c1cn(-c2cccc(OC(F)(F)F)c2)cn1,173 to 175 °C
6,COc1ccc(Cc2nnc(-c3ccc4occc4c3)o2)cc1,108 to 109 °C
7,c1ccc2c(c1)OCCc1c-2n(CCCCCCN2CCCCC2)c2ccccc12,110 °C
8,CC(C)(C)OC(=O)NC1CCN(C2CCN(Cc3ccccc3)CC2)C1 (stereo not drawn),118 °C
9,CC(C)CC[C@H](O)[C@H](CC1CCCCC1)NC(=O)[C@H](Cc1c[nH]cn1)NC(=O)OC(C)(C)C,96 to 100 °C
10,CC(C)n1c(S(=O)(=O)c2ccc(OCc3ccccc3)cc2)nc2ccccc21,94 to 96 °C
11,O=c1c2c(Cc3cccc(O)c3)n[nH]c2c2cccnc2n1-c1ccccc1,276 to 278 °C
12,Cc1cc(Cl)cc(C(=O)NC2(C)CC2)c1NC(=O)c1cc(Br)nn1-c1ncccc1Cl,> 250 °C
13,CC1CC(C(=O)Nc2ccccc2)(C(=O)OC(C)(C)C)N(C(=O)CNC(=O)Nc2cccc(C(=O)O)c2)C1c1ccccc1 (stereo not drawn),238 °C
14,CCOC(=O)c1cc2c3n(ccc-2n1)CC(c1cccc(OC)c1)=N3,198 to 200 °C
15,CCOC(=O)c1ncn(-c2nc(C)cs2)c1Cl,98 to 101 °C
16,COC(=O)c1cccc(-c2nc(COc3ccc(CO)cc3OC)c(C)o2)c1,141 to 142 °C
17,FC(F)(F)COC(c1ccccc1)(c1ccccc1)c1ccccc1,111 °C
18,O=c1[nH]c(=O)n(C2CC(OCc3ccccc3)C(CO)O2)cc1F (stereo not drawn),138 to 139 °C
19,O=C(NN1CCCCC1)c1nc(-c2ccc(Cl)cc2Cl)c(-c2ccc(Br)cc2)s1,171 to 173 °C
20,COc1ccc(N(C)C(=O)CN2C(=O)c3ccccc3C2=O)c(OC)c1COc1cccc2ccc(C)nc12,184 to 185 °C
21,COc1ccc(Oc2cccc(C(F)(F)F)c2)c(C(=O)O)c1,124 °C
22,COC(=O)NCCCCC(=O)OC[C@@H]1CC(c2ccc(-c3ccc(N4C[C@H](Cn5ccnn5)OC4=O)cc3F)cn2)=NO1,90 °C
23,NC(=O)CCc1ccc([N+](=O)[O-])cc1,177 to 178 °C
24,Cc1ccc(C(=O)Nc2nc(-c3ccccc3)c(-c3nc4ccccc4c(=O)n3-c3ccccc3)s2)cc1,> 275 °C
25,COC(=O)c1ccc(CN2N=C(C(C)(C)C)CC2=O)cc1,161 to 162 °C

row,Compound,melting point
1,CN(Cc1cc(C(F)(F)F)cc(C(F)(F)F)c1)C(=O)c1c(-c2ccc(F)cc2)c2c(c(=O)n1C)CCCN2C,230 to 232 °C
2,O=C(O)CCc1cn(Cc2ccc3cc(OCc4cccnc4)ccc3c2)cc1-c1ccccc1,158 to 159 °C
3,COc1ccc2cc(S(=O)(=O)Cc3ccc(OC)c([N+](=O)[O-])c3)c(=O)oc2c1,250 to 252 °C
4,CCCC=CCC1CC(=O)N(c2cc(Cc3n[nH]c(=O)c4ccccc34)ccc2F)C1=O (stereo not drawn),146 to 149 °C
5,Cc1cc([C@H]2CN3C(=O)N(c4cc(Cl)nc(Cl)c4)C(=O)[C@]3(Cc3ccc(OC(F)(F)F)cc3)C2)c(C)[nH]1,112 °C
6,COc1ccc(NC(=O)Cn2c3c(c4cc(Cl)c(Cl)cc42)CCN(C(=O)OC(C)(C)C)CC3)cc1,151 to 152 °C
7,O=C(O)CCCN1CCN2c3ccccc3Cc3ccccc3C2C1 (stereo not drawn),104 to 105 °C
8,COC(=O)C(O)C(CC(C)C)NC(=O)C(Cc1c[nH]cn1)NC(=O)C(CC(=O)NCCc1ccccc1)Cc1cccc2ccccc12 (mixture of isomers),82 to 87 °C
9,CCOC(=O)c1cnn(-c2ccc(F)cc2)c1Cl,70 to 72 °C
10,COC1(F)C=CC=C(c2cc(CBr)c(=O)n(Cc3ccc(F)cc3)n2)C1 (stereo not drawn),120 to 125 °C
11,O=C(c1ccc(O)cc1)c1ccc([N+](=O)[O-])cc1,196 °C
12,CCOC(=O)c1c(Cl)nc(-c2ccccc2)c([N+](=O)[O-])c1C(=O)OCC,65 to 66 °C
13,CSC1C(=O)Nc2c(Nc3ccc(Cl)cc3)cccc21 (stereo not drawn),190 to 192 °C
14,CC(N)=NC(=Nc1ccccc1)N1CCOCC1,146 to 148 °C
15,CC1CC(C)CN(CCNC(=O)Nc2ccccc2)C1 (stereo not drawn),189 to 191 °C
16,CS(=O)(=O)OC1CN(c2c(F)cc3c(=O)c(C(=O)O)cn(C4CC4)c3c2F)C1,240 to 244 °C
17,Cc1oc(-c2ccccc2)nc1COc1cc(CO)on1,99 to 100 °C
18,CN1CCN(c2cccc3c2C[C@H](NC(=O)c2ccc(N4CCOCC4)cc2)CC3)CC1,230 to 231 °C
19,O=C(O)CCCCCCCCNS(=O)(=O)c1ccc(Br)cc1,124 to 125 °C
20,Fc1ccc2c(C3CCN(CCC4COc5ccccc5O4)CC3)noc2c1 (stereo not drawn),112 to 113 °C
21,Cc1nc2c(O)cccn2c(=O)c1CCN1CCC(c2noc3cc(F)ccc23)CC1,288 °C
22,COC(=O)CCCCCCC(=O)Nc1ccc(C(=O)NN=C2C(=O)Nc3ccc(I)cc32)cc1,268 °C
23,CN(c1ccc(O)cc1)c1nc2ccccc2[nH]1,> 260 °C
24,CC(Cl)(Cl)C(NC(=O)c1ccc(C(F)(F)F)cc1)NC(=NC#N)Nc1ccc(Cl)nc1 (stereo not drawn),210 to 211 °C
25,O=C(Nc1c(C(O)(C(F)(F)F)C(F)(F)F)ccc2ccccc12)c1ccc(F)cc1,135 to 136 °C

row,Compound,melting point
1,CCCCCCC(C(C)O)n1cnc(C#N)c1N (stereo not drawn),110 to 111 °C
2,O=C1CCc2cc(C(=O)[C@H]3CC[C@H]3C(=O)O)ccc2N1 (relative stereo),155 to 158 °C
3,COC(=S)c1[nH]c2ccc(Cl)cc2c1-c1ccccc1,193 to 196 °C
4,O=c1c2ccccc2nc(-c2cc(-c3ccncc3)c(N3CCOCC3)s2)n1-c1ccccc1,230 to 231 °C
5,COC(=O)CC(=O)C[C@@H]1[C@@H](N2C(=O)c3ccccc3C2=O)C(=O)N1C(=O)C(=O)OC,130 to 132 °C
6,CCOC(=O)N[C@H]1CC=C[C@H]2CNC(=O)[C@H]12 (racemic),160 to 164 °C
7,O=C(CN1CCC(Oc2ccccc2)CC1)Nc1ccc2[nH]c(=O)oc2c1,190 to 196 °C
8,CCCN1C(=O)c2ccccc2Sc2ccccc21,103 to 104 °C
9,Cn1c(C(F)(F)F)ccc(-c2c(F)cc(Cl)c3oc(C(=O)O)cc23)c1=O,233 to 235 °C
10,CCC1CCCCN1CCC(=O)N1c2ccccc2NC(=O)c2ccccc21 (stereo not drawn),147 to 148 °C
11,CCN(CC)CCCCC1CCN(CC(=O)N2c3ccccc3NC(=O)c3c2ccn3C)CC1,198 °C
12,CC1C(=O)CN[C@H]2c3ccc(Cl)cc3CC[C@H]12 (stereo partly drawn),71.5 to 73 °C
13,O=C(Cc1ccncc1)NC1CCCCC1,147 to 148 °C
14,N#Cc1ccc(CBr)c(Cl)c1,83 to 85 °C
15,CN1CCC(C2CCN(c3ncc4ncnc(Nc5ccc(F)c(Cl)c5)c4n3)CC2)CC1,159 to 162 °C
16,CC(C)C(=O)NC(c1ccc(C=O)cc1)C(F)(F)F (stereo not drawn),132 to 133 °C
17,N=C(N)c1ccc(-n2ncn(-c3ccc(CCC(=O)O)cc3)c2=O)cc1,310 to 313 °C
18,CC(=O)Nc1cccc2c1C(=O)c1c-2n[nH]c1-c1ccncc1,> 300 °C
19,CCOC(=O)C(N)c1ccc(C(C)=O)cc1 (stereo not drawn),77 to 78 °C
20,Cc1cccc(NC(=O)NCC(=O)N(CC(=O)N(CC(=O)OC(C)(C)C)c2ccccc2)c2ccccc2)c1,76 to 80 °C
21,Oc1ccccc1OCC1NCCS1 (stereo not drawn),76 to 78 °C
22,O=[N+]([O-])C=C1NCCN1Cc1ccno1,156 to 158 °C
23,NS(=O)(=O)c1cc2c(c(C(=O)O)c1)OCCO2,272 to 274 °C
24,Cc1nc(CCn2cnc3c2c(=O)[nH]c(=O)n3C)no1,258 to 260 °C
25,CNc1nc2ccccc2n1CCO,> 200 °C

row,Compound,melting point
1,COc1cccc(NC(=O)NCC(=O)N(CC(=O)OC(C)(C)C)c2ccccc2C(=O)c2ccccc2)c1,153 to 155 °C
2,O=C1c2cc3nnn(CCCc4cccc(F)c4)c(=O)c3cc2OC2CCCN12 (stereo not drawn),145 to 148 °C
3,CCCCOc1ccc(S(=O)(=O)C2(C(=O)NO)CCN(Cc3ccncc3)CC2)cc1,118 °C
4,CCCCc1ccc(-c2ccc(CCc3ccc(Cl)cc3)cc2)cc1,129 °C
5,O=C(O)c1cc(-c2ccc(OCc3ccccc3)cc2OCc2ccccc2)n[nH]1,218 to 219 °C
6,Nc1nc2ccc3ccc(CNc4ccc(F)cc4)cc3c2c(=O)[nH]1,> 230 °C
7,CC(C)c1csc2[nH]cc(C#N)c(=O)c12,285 °C
8,O=C(NCCCc1ccccc1)Nc1ccccn1,127 to 128 °C
9,CCOC(=O)C=Cc1cc(=O)c(C(=O)O)cn1-c1ccc(O)cc1C,185 to 189 °C
10,CC(C)(C)OC(=O)Nc1cc(N2CCC(OC3CCCCO3)CC2)c(-c2ccc(F)cc2)cc1N (racemic),157 to 161 °C
11,COc1cc2c(cc1Br)CCOC2c1ccc([N+](=O)[O-])cc1 (stereo not drawn),144 to 147 °C
12,Cc1cc2c([C@@H]3C[C@H]3CNC(=O)c3ccccc3)cccn2n1 (relative stereo),112 to 113 °C
13,ClCCCCSc1ccncc1,80 to 85 °C
14,Cc1ccc2nc(-c3ccc4c(c3)sc(=N)n4C)sc2c1,146 to 148 °C
15,COc1ccc2c(c1)Sc1cc(N)ccc1N2C,142 to 143 °C
16,O=C(Cl)c1cc2[nH]c3cc(Cl)ccc3c2o1,232 to 233 °C
17,Cc1cc(C#N)c(S(C)(=O)=O)cc1C(=O)O,248 to 249 °C
18,Cc1cccc(-n2nccc2-c2nn(-c3cccc(C(F)(F)F)c3)ccc2=O)c1,142 to 143 °C
19,CNC(=O)c1cc(Oc2ccc(NC(=O)Nc3ccc4c(cnn4C)c3)c(F)c2)ccn1,231 to 234 °C
20,CCC(C)C(S)C(=O)NC1(C(=O)NC(Cc2ccc(-c3ccco3)nc2)C(=O)O)CCCC1 (stereo not drawn),175 to 180 °C
21,Cc1ccc(C(=O)c2cc(C(C)(C)C)c(O)c(C(C)(C)C)c2)c(Cl)n1,116 to 117 °C
22,CCC(=O)c1ccsc1N,140 to 142 °C
23,CC1(C)C2CC[C@]1(C)C(=O)C(C(=O)Nc1ccc(C(F)(F)F)cc1)C2=O (stereo partly drawn),78 to 81 °C
